The text below walks through data of US11098063B2, “Diazabicyclic substituted imidazopyrimidines and their use for the treatment of breathing disorders” (Bayer Aktiengesellschaft, priority 2017, dated 2021).

One test deals with human TASK-1 (Homo sapiens (Human), UniProt O14649). Briefly: Inhibition of recombinant TASK-1 in stably transfected CHO cells (voltage-sensitive dye, KCl depolarization). The test is classed as cell-based. The following applies: depolarization by 40 mM potassium chloride. On the procedure: (§1) B-2. Inhibition of Recombinant TASK-1 and TASK-3 In Vitro
(§2) The investigations on the inhibition of the recombinant TASK-1 and TASK-3 channels were conducted using stably transfected CHO cells. The compounds according to the invention were tested in this case by application of 40 mM potassium chloride in the presence of a voltage-sensitive dye according to the method described in detail in the following references [Whiteaker et al., Validation of FLIPR membrane potential dye for high-throughput screening of potassium channel modulators, J. Biomol. Screen. 6 (5), 305-312 (2001); Molecular Devices FLIPR Application Note: Measuring membrane potential using the FLIPR® membrane potential assay kit on Fluorometric Imaging Plate Reader (FLIPR®) systems, http://www.moleculardevices.com/reagents-supplies/assay-kits/ion-channels/flipr-membrane-potential-assay-kits]. The activity of the test substances was determined as their ability to inhibit a depolarization induced in the recombinant cells by 40 mM potassium chloride. The concentration which can block half of this depolarization is referred to as IC50.

The target in a further test is human TASK-3 (Homo sapiens (Human), UniProt Q9NPC2). Briefly: Inhibition of recombinant TASK-3 in stably transfected CHO cells (voltage-sensitive dye, KCl depolarization). It counts as cell-based. The conditions noted are these: depolarization by 40 mM potassium chloride. The method, then:
as §1, §2

human TASK-3, sequence (Q9NPC2 whole entry): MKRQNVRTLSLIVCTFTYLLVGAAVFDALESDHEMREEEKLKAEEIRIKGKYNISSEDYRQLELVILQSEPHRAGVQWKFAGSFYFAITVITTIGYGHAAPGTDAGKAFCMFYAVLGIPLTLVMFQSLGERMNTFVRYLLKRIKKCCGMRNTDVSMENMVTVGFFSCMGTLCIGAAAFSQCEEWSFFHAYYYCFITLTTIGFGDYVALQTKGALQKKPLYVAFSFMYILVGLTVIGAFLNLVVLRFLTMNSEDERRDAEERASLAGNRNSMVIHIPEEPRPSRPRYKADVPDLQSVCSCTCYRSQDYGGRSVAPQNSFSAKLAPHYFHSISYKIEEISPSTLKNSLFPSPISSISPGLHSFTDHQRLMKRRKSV
human TASK-1, sequence (O14649 whole entry): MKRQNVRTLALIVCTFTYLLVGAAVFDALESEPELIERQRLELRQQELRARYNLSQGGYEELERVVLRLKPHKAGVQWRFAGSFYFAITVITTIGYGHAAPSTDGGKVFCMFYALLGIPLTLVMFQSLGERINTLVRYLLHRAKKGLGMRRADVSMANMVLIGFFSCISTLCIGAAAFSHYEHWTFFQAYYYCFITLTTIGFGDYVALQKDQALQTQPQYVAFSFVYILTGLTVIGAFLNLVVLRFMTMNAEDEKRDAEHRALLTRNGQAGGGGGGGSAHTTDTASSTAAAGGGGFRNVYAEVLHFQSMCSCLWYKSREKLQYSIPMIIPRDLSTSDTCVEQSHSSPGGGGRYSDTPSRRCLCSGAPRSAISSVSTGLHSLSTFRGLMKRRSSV

A word on the IC50: it is the concentration needed to halve the response being measured. `CCc1ccccc1NC(=O)N1C2CCC1CN(Cc1c(-c3ccc(Cl)cc3)nc3ncccn13)C2` [Example 95, 3-{[2-(4-chlorophenyl)imidazo[1,2-a]pyrimidin-3-yl]methyl}-N-(2-ethylphenyl)-3,8-diazabicyclo[3.2.1]octane-8-carboxamide]: the values for the IC50 on human TASK-1 and at human TASK-3 were 3000 nM and 41 nM, respectively.
The like results for `O=C(Nc1cc(C(F)(F)F)ccc1Cl)N1C2CCC1CN(Cc1c(-c3ccc(Cl)cc3)nc3ncccn13)C2` [Example 97, 3-{[2-(4-chlorophenyl)imidazo[1,2-a]pyrimidin-3-yl]methyl}-N-[2-chloro-5-(trifluoromethyl)phenyl]-3,8-diazabicyclo[3.2.1]octane-8-carboxamide] were, in that order, 31000 nM and 450 nM.
The like results for `CCc1cccc(C)c1NC(=O)N1C2CCC1CN(Cc1c(-c3ccc(Cl)cc3)nc3ncccn13)C2` [Example 98, 3-{[2-(4-chlorophenyl)imidazo[1,2-a]pyrimidin-3-yl]methyl}-N-(2-ethyl-6-methylphenyl)-3,8-diazabicyclo[3.2.1]octane-8-carboxamide] were, in that order, 9000 nM and 160 nM.
The like results for `Cc1ccc(C)c(NC(=O)N2C3CCC2CN(Cc2c(-c4ccc(Cl)cc4)nc4ncccn24)C3)c1` [Example 99, 3-{[2-(4-chlorophenyl)imidazo[1,2-a]pyrimidin-3-yl]methyl}-N-(2,5-dimethylphenyl)-3,8-diazabicyclo[3.2.1]octane-8-carboxamide] were, in that order, 30000 nM and 750 nM.
With `O=C(NC1CCCCC1)N1C2CCC1CN(Cc1c(-c3ccc(Cl)cc3)nc3ncccn13)C2` [Example 100, 3-{[2-(4-Chlorophenyl)imidazo[1,2-a]pyrimidin-3-yl]methyl}-N-cyclohexyl-3,8-diazabicyclo[3.2.1]octane-8-carboxamide], the IC50 on human TASK-1 turned out to be 19000 nM; on human TASK-3 it was 630 nM.
Turning to `CC(C)CNC(=O)N1C2CCC1CN(Cc1c(-c3ccc(Cl)cc3)nc3ncccn13)C2` [Example 101, 3-{[2-(4-Chlorophenyl)imidazo[1,2-a]pyrimidin-3-yl]methyl}-N-isobutyl-3,8-diazabicyclo[3.2.1]octane-8-carboxamide], the IC50 came out at 19000 nM at human TASK-1 and 510 nM at human TASK-3.
For `O=C(Nc1ccc(SC(F)(F)F)cc1)N1C2CCC1CN(Cc1c(-c3ccc(Cl)cc3)nc3ncccn13)C2` [Example 103, 3-{[2-(4-chlorophenyl)imidazo[1,2-a]pyrimidin-3-yl]methyl}-N-{4-[(trifluoromethyl)sulfanyl]phenyl}-3,8-diazabicyclo[3.2.1]octane-8-carboxamide], in that order: 30000 nM and 690 nM.
The like results for `O=C(Nc1cccc(F)c1)N1C2CCC1CN(Cc1c(-c3ccc(Cl)cc3)nc3ncccn13)C2` [Example 104, 3-{[2-(4-chlorophenyl)imidazo[1,2-a]pyrimidin-3-yl]methyl}-N-(3-fluorophenyl)-3,8-diazabicyclo[3.2.1]octane-8-carboxamide] were, in that order, 19000 nM and 460 nM.
On to `O=C(Nc1ccc(Cl)cc1C(F)(F)F)N1C2CCC1CN(Cc1c(-c3ccc(Cl)cc3)nc3ncccn13)C2` [Example 106, 3-{[2-(4-chlorophenyl)imidazo[1,2-a]pyrimidin-3-yl]methyl}-N-[4-chloro-2-(trifluoromethyl)phenyl]-3,8-diazabicyclo[3.2.1]octane-8-carboxamide], for which the half-inhibitory concentration (IC50) at human TASK-1 came to 30000 nM; at human TASK-3, 89 nM.
The like results for `Cc1ccccc1CNC(=O)N1C2CCC1CN(Cc1c(-c3ccc(Cl)cc3)nc3ncccn13)C2` [Example 107, 3-{[2-(4-chlorophenyl)imidazo[1,2-a]pyrimidin-3-yl]methyl}-N-(2-methylbenzyl)-3,8-diazabicyclo[3.2.1]octane-8-carboxamide] were, in that order, 30000 nM and 750 nM.
The like results for `CN(C(=O)N1C2CCC1CN(Cc1c(-c3ccc(Cl)cc3)nc3ncccn13)C2)c1ccccc1` [Example 108, 3-{[2-(4-chlorophenyl)imidazo[1,2-a]pyrimidin-3-yl]methyl}-N-methyl-N-phenyl-3,8-diazabicyclo[3.2.1]octane-8-carboxamide] were, in that order, 7000 nM and 90 nM.
For `CCN(CC)C(=O)N1C2CCC1CN(Cc1c(-c3ccc(Cl)cc3)nc3ncccn13)C2` [Example 109, 3-{[2-(4-chlorophenyl)imidazo[1,2-a]pyrimidin-3-yl]methyl}-N,N-diethyl-3,8-diazabicyclo[3.2.1]octane-8-carboxamide], in that order: 24 nM and 1.5 nM.
In the case of `O=C(N1CCOCC1)N1C2CCC1CN(Cc1c(-c3ccc(Cl)cc3)nc3ncccn13)C2` [Example 110, (3-{[2-(4-chlorophenyl)imidazo[1,2-a]pyrimidin-3-yl]methyl}-3,8-diazabicyclo[3.2.1]oct-8-yl)(morpholin-4-yl)methanone], the half-inhibitory concentration (IC50) at human TASK-1 is 13000 nM; at human TASK-3 it was 230 nM.
The like results for `CC(C)N(C(=O)N1C2CCC1CN(Cc1c(-c3ccc(Cl)cc3)nc3ncccn13)C2)C(C)C` [Example 111, 3-{[2-(4-chlorophenyl)imidazo[1,2-a]pyrimidin-3-yl]methyl}-N,N-diisopropyl-3,8-diazabicyclo[3.2.1]octane-8-carboxamide] were, in that order, 6300 nM and 290 nM.
For `CCN(C(=O)N1C2CCC1CN(Cc1c(-c3ccc(Cl)cc3)nc3ncccn13)C2)C1CCCCC1` [Example 112, 3-{[2-(4-chlorophenyl)imidazo[1,2-a]pyrimidin-3-yl]methyl}-N-cyclohexyl-N-ethyl-3,8-diazabicyclo[3.2.1]octane-8-carboxamide], in that order: 15000 nM and 130 nM.
`O=C(N1CCCC1)N1C2CCC1CN(Cc1c(-c3ccc(Cl)cc3)nc3ncccn13)C2` [Example 113, (3-{[2-(4-chlorophenyl)imidazo[1,2-a]pyrimidin-3-yl]methyl}-3,8-diazabicyclo[3.2.1]oct-8-yl)(pyrrolidin-1-yl)methanone]: the figures for the IC50 on human TASK-1 and at human TASK-3 were 1100 nM and 62 nM, respectively.
For `CCN(C(=O)N1C2CCC1CN(Cc1c(-c3ccc(Cl)cc3)nc3ncccn13)C2)c1ccccc1` [Example 114, 3-{[2-(4-chlorophenyl)imidazo[1,2-a]pyrimidin-3-yl]methyl}-N-ethyl-N-phenyl-3,8-diazabicyclo[3.2.1]octane-8-carboxamide], in that order: 6700 nM and 140 nM.
As to `CC(C)N(C)C(=O)N1C2CCC1CN(Cc1c(-c3ccc(Cl)cc3)nc3ncccn13)C2` [Example 115, 3-{[2-(4-chlorophenyl)imidazo[1,2-a]pyrimidin-3-yl]methyl}-N-isopropyl-N-methyl-3,8-diazabicyclo[3.2.1]octane-8-carboxamide], the half-inhibitory concentration (IC50) at human TASK-1 came to 7400 nM; at human TASK-3, 330 nM.
For `O=C(N1CCCCC1)N1C2CCC1CN(Cc1c(-c3ccc(Cl)cc3)nc3ncccn13)C2` [Example 116, (3-{[2-(4-chlorophenyl)imidazo[1,2-a]pyrimidin-3-yl]methyl}-3,8-diazabicyclo[3.2.1]oct-8-yl)(piperidin-1-yl)methanone], in that order: 2700 nM and 65 nM.
